Reference: PubChem BioAssay AID504587 (National Center for Advancing Translational Sciences (NCATS), 2011)

System: Caco-2 bidirectional permeability, LC-MS/MS efflux ratio
Experiment: Inhibitors of HPGD: Efflux Ratio Profiling
Details: hits give low values
Description: Human 15-Hydroxyprostaglandin dehydrogenase (HPGD) catalyzes the inactivation of prostaglandin E2, and plays a major role in cancer biology by antagonizing the oncogenic potential of cyclooxygenase type 2 (COX2). Assays are available, based on absorbance/fluorescence increase of NADH with the substrate 15-OH prostaglandin E2. This bioassays provides profiling data on Caco-2 cell permeability of leads compounds developed for the HPGD project. This in vitro model is often predictive of in vivo efflux of the compound by measuring the ratio of transport in and out the plasma membrane of the Caco2-cell line. NIH Chemical Genomics Center [NCGC] Structural Genomics Consortium [SGC]
1. Buffer Preparation: Prepare 1M HEPES: add 23.83g HEPES to 100ml of 0.85% NaCl Prepare HBSS+ buffer: add 12.8ml of 1M HEPES in 0.85% NaCl to 500ml HBSS buffer. 2. Take out the compounds from -80 degrees C, ultrasonicate or pre-warm for a few minutes to thaw the compounds. 3. Solution preparation Prepare donor buffer: For A-to-B direction: HBSS buffer with 0.3% DMSO and 5uM Lucifer Yellow (LY): add 150 µl DMSO and 50 µl LY (5mM) into 50ml HBSS buffer (pH 7.4). HBSS buffer with 0.1% DMSO and 5 µM Lucifer Yellow (LY): add 50 µl DMSO and 50 µl LY (5mM) into 50ml HBSS buffer (pH 7.4). […] The T0, LY and T90, LY plates are read by FlexStation 3 at excitation of 485 nm and emission of 535 nm to determine LY permeability. […]

| SMILES | efflux ratio |
| --- | --- |
| Cc1cc(-c2nnc3n2CCCCC3)c(C)n1-c1ccccc1 | 21 |
| Cc1cccc(-n2cnc3cc(C(=O)N4CCCCC4)ccc32)c1 | 15 |
